# According to US9096538B2, “Pharmaceutical comprising PPAR agonist” (Senju Pharmaceutical Co., Ltd., priority 2005, dated 2015):
# What was measured:
# [1] = tested on: rabbit corneal epithelial cell; experiment: Test Example 2: increase in cell number, cultured rabbit corneal epithelial cell, 120 hours (Cell Counting Kit-8); format: cell-based; conditions: no addition group = 100%, average ± standard deviation, N = 5
# Experimental: A male rabbit (Japanese white, weight: about 1.5 kg, […] LABES Co., Ltd.) was used. The experimental animal was used according to the International Guiding Principles for Biomedical Research Involving Animals.
# A rabbit corneal epithelial cell was prepared using the same process as that of (Test example 1).
# As the test substance, the following compounds were used. • PPARδ agonist: L-165041 (Sigma-Aldrich) and GW-501516 (Alexis)
# (§1) For studying the effect of promoting cell proliferation by each test substance, a culture medium prepared by removing a mouse-derived epithelial growth factor (mEGF) attached to RCGM2, from RCGM2, was used as a basal medium, while as a positive control for confirming the effect of promoting cell proliferation, a medium with an mEGF added thereto (basal medium+10 ng/mL mEGF) was used according to instructions of an RCGM2 preparation protocol.
# Collagen treatment of the culture dish was performed using the same process as that of (Test Example1).
# In the test, a rabbit corneal epithelial cell which had been cultured to subconfluent in a culture dish having a diameter of 10 cm was used. After the culture medium was removed, the bottom of the culture dish was washed two times using D-PBS, to this was added 1 mL of trypsin-EDTA, this was incubated at 37° C. for 5 minutes and thereby, the cell was peeled from the bottom of the culture dish. After incubation, 9 mL of MEM containing 10% FBS was added to the culture dish to stop the enzymatic reaction, and this was subjected to centrifugation at room temperature and 1,500 rpm for 5 minutes to obtain a corneal epithelial cell layer. To the resulting cell was added an appropriate amount of RCGM2 to a cell concentration of 1×10^5 cells/mL to suspend the cell. Each 64 μL of this cell suspension was dispensed in each well at the cell number per bottom area (0.32 cm^2) of the collagen-treated 96-well culture dish for tissue culture of […]. […] After 24 hours from cell seeding, the culture medium was discarded, and each 100 μL of the following culture media were freshly dispensed into each well of the culture dish. • [1] Only basal medium (no addition group) • [2] Basal medium+mEGF (final concentration: 10 ng/mL; positive control group) • [3] Basal medium+L-165041 (final concentration: 0.1 μM and 1 μM) • [4] Basal medium+GW-501516 (final concentration: 0.01 μM and 0.1 μM)
# The culture supernatant of each well was removed every 48 hours from exchange of the culture medium containing a test substance, and each 100 μL of the freshly prepared culture medium was dispensed into each well.
# [2] = tested on: rabbit corneal epithelial cell; experiment: Test Example 1: increase in cell number, cultured rabbit corneal epithelial cell (Cell Counting Kit-8); format: cell-based; conditions: 48 hours, no addition group = 100%, average ± standard deviation, N = 5
# Experimental: A male rabbit (Japanese white, […] LABES Co., Ltd.) was used. The experimental animal was used according to the International Guiding Principles for Biomedical Research Involving Animals.
# A corneal epithelial cell was prepared from rabbit eyeballs. A cornea was excised from isolated eyeballs, and stored in Dulbecco's phosphate buffered saline (D-PBS; Invitrogen), and this was transferred to a clean bench. The following cell preparation procedures were all performed sterilely.
# The isolated corneal segment was washed with D-PBS with 1% penicillin-streptomycin (Invitrogen) added thereto three times, and was transferred to a minimum essential medium (MEM; Invitrogen). A corneal endothelial cell and a Descemet's membrane of the corneal segment immersed in MEM were peeled with a knife (Alcon) for ocular operation, and the corneal segment (corneal stroma and corneal epithelium) after peeling was transferred to MEM to which dispase II (Roche Diagnostics) had been added to 2.4 U/mL. This was incubated at 37° C. for 1 hour and, thereafter, the dispase II-treated corneal segment was transferred to MEM. The corneal epithelium of the corneal segment immersed in MEM was peeled with the knife for ocular operation, and the corneal segment residue (corneal stroma) was removed from MEM. The peeled corneal epithelial cell and the MEM containing same were recovered in a 50 mL centrifuge tube, subjected to centrifugation at 1,500 rpm for 5 minutes at room temperature. The supernatant was discarded to give a corneal epithelial cell layer. To the corneal epithelial cell layer was added 1 mL of trypsin-EDTA (Invitrogen) and, after thorough mixing, the cells were incubated at 37° C. for 5 minutes to dissociate adhesion between the cells. To this was added 9 mL of MEM containing 10% fetal bovine serum (FBS; Invitrogen) to stop the enzymatic reaction, and this was subjected again to centrifugation at room temperature and 1,500 rpm for 5 minutes to obtain the corneal epithelial cell layer. To the resulting corneal epithelial cell layer was added […] of a serum-free liquid medium for proliferating a normal rabbit corneal epithelial cell (RCGM2; Kurabo Industries LTD.) to suspend the cell, and this was seeded into a culture dish (IWAKI) for culturing a cell having a diameter of 10 cm, to which 9 mL of RCGM2 had been added. […] The culture medium was exchanged with a fresh culture medium every 48 hours until the test day.
# As the test substance, the following compounds were used. • PPARα agonist: WY-14643 (Calbiochem) and fenofibrate (Sigma-Aldrich) • PPARδ agonist: L-165041 (Sigma-Aldrich)
# as §1
# As a culture dish for a test of cell proliferation promotion, a 96-well culture dish for tissue culture (Corning) was used. On the day before the test, each 50 μL of 0.01% type I collagen (Nitta Gelatin Inc.) was dispensed into each well of the culture dish, and coating was performed at 4° C. until immediately before the test. On the test day, after a type I collagen solution was removed, the bottom of the culture dish was washed three times using D-PBS, and this was used in the test as a collagen-treated culture dish.
# In the test, a rabbit corneal epithelial cell which had been cultured to subconfluent in a culture dish having a diameter of 10 cm was used. After the culture medium was removed, the bottom of the culture dish was washed two times using D-PBS, to this was added 1 mL of trypsin-EDTA, this was incubated at 37° C. for 5 minutes and thereby, the cell was peeled from the bottom of the culture dish. […]
smiles,measurement,setting,value
"CCCc1c(OCCCOc2ccc(OCC(=O)O)cc2)ccc(C(C)=O)c1O [L-165041, (4-(3-(4-acetyl-3-hydroxy-2-propyl)phenoxy)propoxyphenoxy)acetic acid]",Cell proliferation (%),[1]; 10^−6 M,198.6 ± 26.7%
same,Cell proliferation (%),[1]; 10^−7 M,242.5 ± 36.2%
same,Cell proliferation (%),[2]; 10^−6 M,182.2 ± 13.0%
same,Cell proliferation (%),[2]; 10^−7 M,163.3 ± 8.2%
